Assay results published in ChEMBL document CHEMBL4190351, “Synthesis and biological evaluation of novel 6,11-dihydro-5H-benzo[e]pyrimido- [5,4-b][1,4]diazepine derivatives as potential c-Met inhibitors” (Eur J Med Chem, 2017).

How the values were obtained:
[1] = molecular target: Hepatocyte growth factor receptor (Homo sapiens, UniProt P08581); experiment: Inhibition of cMet (unknown origin) using poly(Glu, Tyr)4:1 substrate and ATP incubated fro 60 mins by ELISA
CAKI-1 = experiment: Cytotoxicity in human Caki1 cells incubated for 72 hrs by sulforhodamine B assay; conditions: CAKI-1, 72 h
PANC-1 = experiment: Cytotoxicity in human PANC1 cells incubated for 72 hrs by sulforhodamine B assay; conditions: PANC-1, 72 h
PC-3 = experiment: Cytotoxicity in human PC3 cells incubated for 72 hrs by sulforhodamine B assay; conditions: PC-3, 72 h
HepG2 = experiment: Cytotoxicity in human HepG2 cells incubated for 72 hrs by sulforhodamine B assay; conditions: HepG2, 72 h

Hepatocyte growth factor receptor, sequence (P08581 whole entry): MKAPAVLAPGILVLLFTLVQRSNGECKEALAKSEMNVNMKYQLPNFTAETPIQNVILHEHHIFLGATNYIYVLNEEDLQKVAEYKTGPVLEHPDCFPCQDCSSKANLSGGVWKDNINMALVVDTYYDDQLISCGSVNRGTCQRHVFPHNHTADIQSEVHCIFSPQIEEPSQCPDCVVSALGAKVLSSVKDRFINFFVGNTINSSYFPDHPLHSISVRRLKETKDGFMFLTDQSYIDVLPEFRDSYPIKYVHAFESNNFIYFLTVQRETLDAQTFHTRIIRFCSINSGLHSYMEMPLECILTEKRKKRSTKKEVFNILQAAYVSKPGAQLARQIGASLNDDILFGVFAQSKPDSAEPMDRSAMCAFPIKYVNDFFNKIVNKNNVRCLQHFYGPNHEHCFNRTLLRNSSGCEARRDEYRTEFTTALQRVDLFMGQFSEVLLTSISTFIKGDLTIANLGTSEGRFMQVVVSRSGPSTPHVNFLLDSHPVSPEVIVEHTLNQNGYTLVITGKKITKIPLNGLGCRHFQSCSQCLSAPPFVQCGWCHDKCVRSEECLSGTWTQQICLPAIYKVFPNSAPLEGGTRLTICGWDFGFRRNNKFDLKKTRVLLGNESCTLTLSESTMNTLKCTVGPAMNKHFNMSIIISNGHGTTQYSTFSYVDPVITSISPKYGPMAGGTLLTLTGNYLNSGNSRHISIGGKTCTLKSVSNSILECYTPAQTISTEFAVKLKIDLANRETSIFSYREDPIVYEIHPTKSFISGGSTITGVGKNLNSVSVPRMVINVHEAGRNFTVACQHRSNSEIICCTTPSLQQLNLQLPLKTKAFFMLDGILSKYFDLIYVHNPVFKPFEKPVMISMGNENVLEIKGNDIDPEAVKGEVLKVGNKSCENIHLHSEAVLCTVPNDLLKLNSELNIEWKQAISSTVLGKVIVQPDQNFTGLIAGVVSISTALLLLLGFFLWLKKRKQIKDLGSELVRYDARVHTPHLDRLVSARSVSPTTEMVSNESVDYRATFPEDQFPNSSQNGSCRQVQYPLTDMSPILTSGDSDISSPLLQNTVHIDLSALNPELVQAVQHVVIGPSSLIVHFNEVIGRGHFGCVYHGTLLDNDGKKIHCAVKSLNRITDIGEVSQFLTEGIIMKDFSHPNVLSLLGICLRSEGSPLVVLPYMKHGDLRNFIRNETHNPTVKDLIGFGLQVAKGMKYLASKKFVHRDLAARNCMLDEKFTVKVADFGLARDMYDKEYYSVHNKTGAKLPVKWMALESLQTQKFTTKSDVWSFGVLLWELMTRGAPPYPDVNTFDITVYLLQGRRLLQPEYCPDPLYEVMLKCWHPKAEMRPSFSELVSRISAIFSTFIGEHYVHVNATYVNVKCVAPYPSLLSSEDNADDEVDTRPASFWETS

In the case of COc1cc2c(cc1OC)Nc1nccc(Oc3ccc(NC(=O)C4(C(=O)Nc5ccc(F)cc5)CC4)cc3)c1N=C2, the IC50 [1] is reported as over 1 µM.

With COc1cc2c(cc1OC)Nc1ncnc(Oc3ccc(NC(=O)C4(C(=O)Nc5ccc(F)cc5)CC4)cc3F)c1N(C)C2 the IC50 [1] was over 1 µM.

COc1cc2c(cc1OC)Nc1ncnc(Oc3ccc(NC(=O)C4(C(=O)Nc5ccc(F)cc5)CC4)cc3F)c1N=C2 showed an IC50 (CAKI-1) of 0.864 µM, an IC50 (PANC-1) of 1.66 µM and an IC50 (PC-3) of 1.61 µM. It also gave an IC50 (HepG2) of 1.34 µM.

O=C(Nc1ccc(F)cc1)C1(C(=O)Nc2ccc(Oc3ncnc4c3NCc3ccccc3O4)cc2)CC1 gave an IC50 [1] of over 1 µM.

In the case of COc1cc2c(cc1OC)Nc1nccc(Oc3ccc(NC(=O)C4(C(=O)Nc5ccc(F)cc5)CC4)cc3)c1NC2, the IC50 [1] is reported as over 1 µM.

COc1cc2c(cc1OC)C(=O)Nc1c(ncnc1Oc1ccc(NC(=O)C3(C(=O)Nc4ccc(F)cc4)CC3)cc1F)N2 gave an IC50 [1] of over 1 µM.

For COc1cc2c(cc1OC)C(=O)Nc1c(Oc3ccc(NC(=O)C4(C(=O)Nc5ccc(F)cc5)CC4)cc3F)ccnc1N2, the IC50 [1] was over 1 µM.

In the case of COc1cc2c(cc1OC)Nc1nccc(Oc3ccc(NC(=O)C4(C(=O)Nc5ccc(F)cc5)CC4)cc3F)c1N=C2, the IC50 [1] is reported as over 1 µM.

Compound COc1cc2c(cc1OC)Nc1ncnc(Oc3ccc(NC(=O)C4(C(=O)Nc5ccc(F)cc5)CC4)cc3)c1NC2 has an IC50 (CAKI-1) of 1.47 µM, an IC50 (PANC-1) of 5.34 µM and an IC50 (PC-3) of 7.12 µM. For the same compound, the IC50 (HepG2) was 4.91 µM.

With COc1ccc2c(c1)CNc1c(nc(C)nc1Oc1ccc(NC(=O)C3(C(=O)Nc4ccc(F)cc4)CC3)cc1)N2 the IC50 [1] was over 1 µM.
